# Measured values: PMC9652372, “Glycolytic flux control by drugging phosphoglycolate phosphatase” (Nature Communications, 2022)
# “And” between values parts separate entries of the source, which are not always exact repeats. Equal entries are not always repeated. Where two headings read alike, the source gives them in different places.
# Columns and labels:
# [1] = molecular target: T1, murine PDXP/PGP hybrid (Mus musculus, UniProt P60487+Q8CHP8); experiment: PG dephosphorylation by PDXP/PGP hybrid protein; type: biochemical
# T1 construct: consisting of the PGP cap domain (amino acids 114–233) fused to the PDXP core domain; His6 (N, cleaved yes); made in house; host or cells: Escherichia coli BL21 (DE3), pETM11
# T1 sequence (P60487 1-100): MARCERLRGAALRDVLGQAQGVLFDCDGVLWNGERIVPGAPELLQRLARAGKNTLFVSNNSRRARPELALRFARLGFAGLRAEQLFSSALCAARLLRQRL
# T1 sequence (Q8CHP8 114-233): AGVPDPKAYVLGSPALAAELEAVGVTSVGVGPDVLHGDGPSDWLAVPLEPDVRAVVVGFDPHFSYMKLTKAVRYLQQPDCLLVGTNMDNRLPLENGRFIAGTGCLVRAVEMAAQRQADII
# T1 sequence (P60487 208-292): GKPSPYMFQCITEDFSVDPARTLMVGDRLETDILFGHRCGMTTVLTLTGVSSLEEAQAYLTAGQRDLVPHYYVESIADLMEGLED
# Experimental: After centrifugation, cells were resuspended in TNM-2 (100 mM triethanolamine, 500 mM NaCl, 20 mM imidazole, 5 mM MgCl2; pH 7.4). Cleared supernatants were loaded on a HisTrap HP nickel sepharose column in TNM-3 (50 mM triethanolamine, 500 mM NaCl, 20 mM imidazole, 5 mM MgCl2; pH 7.4), and His6-tagged proteins were eluted using a linear gradient of up to 50% TNM-4 (50 mM triethanolamine; 250 mM NaCl; 500 mM imidazole; 5 mM MgCl2; pH 7.4). Peak fractions were pooled, the His6-tag was cleaved, and untagged PDXP or PDXP/PGP was isolated, concentrated and further purified by size exclusion chromatography in TNM-5 (50 mM triethanolamine; 250 mM NaCl; 5 mM MgCl2; pH 7.4). […] Data were analyzed with GraphPad Prism 7.04.
# [2] = molecular target: T2, PGP^WT (Mus musculus, UniProt Q8CHP8); experiment: Differential scanning fluorimetry (Thermofluor); type: binding
# T2 construct: His6 (N, cleaved yes); made in house; host or cells: Escherichia coli BL21 (DE3), pETM11, co-expressed with groES-groEL-tig
# T2 sequence (Q8CHP8 1-321): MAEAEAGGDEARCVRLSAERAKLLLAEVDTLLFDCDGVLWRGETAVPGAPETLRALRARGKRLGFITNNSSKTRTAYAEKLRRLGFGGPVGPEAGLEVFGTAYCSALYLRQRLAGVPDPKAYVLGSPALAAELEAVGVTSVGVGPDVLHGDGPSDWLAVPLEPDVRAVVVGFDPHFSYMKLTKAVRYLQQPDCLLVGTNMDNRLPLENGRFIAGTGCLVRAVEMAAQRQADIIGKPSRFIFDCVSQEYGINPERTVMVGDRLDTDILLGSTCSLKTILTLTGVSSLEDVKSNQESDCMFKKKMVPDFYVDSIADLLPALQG
# [3] = physchem; details: organic solvent or mixture
# [4] = molecular target: T3, murine PGP (Mus musculus, UniProt Q8CHP8); experiment: biochemical
# T3 sequence (Q8CHP8 1-321): T2 sequence (Q8CHP8 1-321)
# [5] = molecular target: T4, murine PDXP (Mus musculus, UniProt P60487); experiment: PDXP activity towards pyridoxal 5'-phosphate (PLP); details: phosphatase PDXP; species M.m.; substrate PLP; n.s. = no significant inhibition detectable
# T4 sequence (P60487 1-292): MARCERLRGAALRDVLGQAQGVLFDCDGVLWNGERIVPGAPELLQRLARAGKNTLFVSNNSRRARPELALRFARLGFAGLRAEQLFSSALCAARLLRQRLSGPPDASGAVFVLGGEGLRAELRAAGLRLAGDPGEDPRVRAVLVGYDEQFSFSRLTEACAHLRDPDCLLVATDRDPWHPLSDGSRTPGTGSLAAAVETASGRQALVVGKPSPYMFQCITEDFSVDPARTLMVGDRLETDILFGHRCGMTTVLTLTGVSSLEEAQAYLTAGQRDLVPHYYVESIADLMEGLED
# [6] = molecular target: T3, murine PGP; experiment: IC50 determination, murine PGP, pNPP dephosphorylation
# [7] = molecular target: T5, PGP (Mus musculus, UniProt Q8CHP8); experiment: Steady state kinetics of PG dephosphorylation in presence of CP1-3; details: for PGP activity: 1 µM CP2
# T5 sequence (Q8CHP8 1-321): T2 sequence (Q8CHP8 1-321)
compound,measurement,setting,value
COc1ccc(C(=O)Nc2ccc(Cc3ccc(NC(=O)c4ccc(OC)c(OC)c4)c(C(=O)O)c3)cc2C(=O)O)cc1OC [CP2],remaining activity at 64 µM,"[1]; activity, control = 100, CP log[M] -4.19382",17.6%
same,remaining activity at 32 µM,"[1]; activity, control = 100, CP log[M] -4.49485",16%
same,remaining activity at 16 µM,"[1]; activity, control = 100, CP log[M] -4.79588",23.7%
same,remaining activity at 4 µM,"[1]; activity, control = 100, CP log[M] -5.39794",48.1%
same,remaining activity at 2 µM,"[1]; activity, control = 100, CP log[M] -5.69897",55.7%
same,remaining activity at 1 µM,"[1]; activity, control = 100, CP log[M] -6",80.9%
same,remaining activity at 0.5 µM,"[1]; activity, control = 100, CP log[M] -6.30103",90.8%
same,remaining activity at […],"[1]; activity, control = 100, CP log[M] -6.60206",93.9%
same,remaining activity at 0.125 µM,"[1]; activity, control = 100, CP log[M] -6.90309",94.7%
same,remaining activity at 0.0625 µM,"[1]; activity, control = 100, CP log[M] -7.20412",87.8%
same,remaining activity at 0.015625 µM,"[1]; activity, control = 100, CP log[M] -7.80618",101%
same,IC50,"[1]; phosphatase PDXP/PGP, species M.m., substrate PG",2.57 ± 0.23 µM
same,TM,[2]; Inhibitor 0.146484 µM,66.4 °C
same,TM,[2]; Inhibitor 0.292969 µM,66.5 °C
same,TM,[2]; Inhibitor 0.585938 µM,66.5 °C
same,TM,[2]; Inhibitor 1.17188 µM,66.5 °C
same,TM,[2]; Inhibitor 2.34375 µM,66.6 °C
same,TM,[2]; Inhibitor 4.6875 µM,66.8 °C
same,TM,[2]; Inhibitor 9.375 µM,67.7 °C
same,TM,[2]; Inhibitor 18.75 µM,68.2 °C
same,TM,[2]; Inhibitor 37.5 µM,68.6 °C
same,TM,[2]; Inhibitor 75 µM,68.6 °C
same,TM,[2]; Inhibitor 150 µM,67.9 °C
same,increase in the maximal PGP melting temperature,[2]; from 66.4 °C (control conditions),2.2 °
same,solubility,[3],15 mM
same,IC50,[4],1.58 µM and 0.7 µM
same,IC50,[5],n.s.
same,IC50,[6],4.76 ± 1.19 µM
same,remaining activity at 50 µM,"[6]; read-out: M.m PGP on pNPP, activity, control = 100.00, CP log[M] -4.30103",28.4%
same,remaining activity at 25 µM,"[6]; read-out: M.m PGP on pNPP, activity, control = 100.00, CP log[M] -4.60206",32.2%
same,remaining activity at 10 µM,"[6]; read-out: M.m PGP on pNPP, activity, control = 100.00, CP log[M] -5",43.5%
same,remaining activity at 5 µM,"[6]; read-out: M.m PGP on pNPP, activity, control = 100.00, CP log[M] -5.30103",58.6%
same,remaining activity at […],"[6]; read-out: M.m PGP on pNPP, activity, control = 100.00, CP log[M] -5.60206",63.7%
same,remaining activity at 1 µM,"[6]; read-out: M.m PGP on pNPP, activity, control = 100.00, CP log[M] -6",94.7%
same,remaining activity at 0.5 µM,"[6]; read-out: M.m PGP on pNPP, activity, control = 100.00, CP log[M] -6.30103",85.5%
same,remaining activity at […],"[6]; read-out: M.m PGP on pNPP, activity, control = 100.00, CP log[M] -6.60206",93.2%
same,remaining activity at 0.125 µM,"[6]; read-out: M.m PGP on pNPP, activity, control = 100.00, CP log[M] -6.90309",91.7%
same,remaining activity at 0.0625 µM,"[6]; read-out: M.m PGP on pNPP, activity, control = 100.00, CP log[M] -7.20412",105%
same,remaining activity at 0.03125 µM,"[6]; read-out: M.m PGP on pNPP, activity, control = 100.00, CP log[M] -7.50515",94%
same,mode of PGP inhibition,[7],competitive inhibitors
same,PGP activity,[7]; PG 25 µM,1.021 µmol Pi/min/mg and 0.7809 µmol Pi/min/mg and 1.201 µmol Pi/min/mg
same,PGP activity,[7]; PG 50 µM,2.343 µmol Pi/min/mg and 1.682 µmol Pi/min/mg and 2.403 µmol Pi/min/mg
